Converted amounts (≈) assume the structure as drawn.
Tests used:
Assay in all cases: In vitro antibacterial evaluation: minimum inhibitory concentration (MIC), broth dilution method
Format in all cases: cell-based
Staphylococcus sp. = conditions: for MIC Staphylococcus aureus (ATCC 29213): strain ATCC 29213; for MIC Staphylococcus aureus (GC 1131): strain GC 1131; for MIC Staphylococcus aureus (GC 4541): strain GC 4541; for MIC Staphylococcus aureus-SMITH (GC 4543): strain GC 4543; for MIC Coagulase Negative Staphylococcus (GC 4547): strain GC 4547; for MIC Coagulase Negative Staphylococcus (GC 4548): strain GC 4548; for MIC Coagulase Negative Staphylococcus (GC 4549): strain GC 4549; for MIC Coagulase Negative Staphylococcus (GC 6257): strain GC 6257
How it was run: (§1)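 Inoculum: 5×10^5 CFU/mL. Range: 64-0.06 μg/mL. Medium: Muller-Hinton II […]; NCCLS M7-A2 broth dilution. Endpoint: lowest concentration inhibiting growth. Strains include methicillin-, penicillin- and/or vancomycin-resistant clinical isolates.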

Enterococcus sp. = conditions: 18 hours at 35° C.
How it was run: as §1

Escherichia coli = conditions: 18 hours at 35° C.
How it was run: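 NCCLS M7-A2 broth dilution with Mueller-Hinton II, testing 64-0.06 μg/mL antibiotic against 5×10^5 CFU/mL inocula. Test strains include recent methicillin-, penicillin- or vancomycin-resistant clinical isolates. MIC is the lowest concentration preventing growth.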

Streptococcus sp. = conditions: 18 hours at 35° C.
How it was run: as §1

[1] = Enterococcus faecalis (ATCC 29212)
[2] = Enterococcus faecalis (GC 2242)
[3] = Enterococcus faecalis (GC 6189)
[4] = broth dilution, inoculum 5×10^5 CFU/mL
[5] = Streptococcus pneumoniae (ATCC 6301)
[6] = Streptococcus pneumoniae (GC 1894)

Structure (SMILES): CC(c1ccccc1)C1NC(=O)CNC(=O)C(CO)NC(=O)C(C(O)C2CNC(=N)N2C2OC(CO)C(O)C(O)C2O)NC(=O)C(C(O)C2CNC(=N)N2)NC(=O)C(Cc2ccc(OC3OC(CO)C(OC4OC5COC6(CCCCCCCCCCC6)OC5C(O)C4O)C(O)C3O)cc2)NC1=O (stereo not drawn) [Example 209, Cyclo[glycyl-β-methylphenylalanyl-O-[4-O-(4,6-O-cyclododecylidenehexopyranosyl)-hexopyranosyl]tyrosyl-3-(2-iminoimidazolidin-4-yl)seryl-3-(3-hexopyranosyl-2-iminoimidazolidin-4-yl)serylseryl]]
- MIC Staphylococcus aureus (ATCC 29213) (Staphylococcus sp.): 4 µg/mL (≈ 2.74 µM)
- MIC Staphylococcus aureus (GC 1131) (Staphylococcus sp.): 2 µg/mL (≈ 1.37 µM)
- MIC Staphylococcus aureus (GC 4541) (Staphylococcus sp.): 2 µg/mL (≈ 1.37 µM)
- MIC Staphylococcus aureus-SMITH (GC 4543) (Staphylococcus sp.): 1 µg/mL (≈ 0.685 µM)
- MIC Coagulase Negative Staphylococcus (GC 4547) (Staphylococcus sp.): 4 µg/mL (≈ 2.74 µM)
- MIC Coagulase Negative Staphylococcus (GC 4548) (Staphylococcus sp.): 1 µg/mL (≈ 0.685 µM)
- MIC Coagulase Negative Staphylococcus (GC 4549) (Staphylococcus sp.): 1 µg/mL (≈ 0.685 µM)
- MIC Coagulase Negative Staphylococcus (GC 6257) (Staphylococcus sp.): 2 µg/mL (≈ 1.37 µM)
- MIC Enterococcus avium (GC 4558) (Enterococcus sp.; Enterococcus avium (GC 4558)): 4 µg/mL (≈ 2.74 µM)
- MIC Enterococcus faecalis (ATCC 29212) (Enterococcus sp.; [1]): 4 µg/mL (≈ 2.74 µM)
- MIC Enterococcus faecalis (GC 2242) (Enterococcus sp.; [2]): 4 µg/mL (≈ 2.74 µM)
- MIC Enterococcus faecalis (GC 6189) (Enterococcus sp.; [3]): 1 µg/mL (≈ 0.685 µM)
- MIC Enterococcus faecium (GC 2243) (Enterococcus sp.; Enterococcus faecium (GC 2243)): 1 µg/mL (≈ 0.685 µM)
- MIC Enterococcus faecium (GC 4556) (Enterococcus sp.; Enterococcus faecium (GC 4556)): 4 µg/mL (≈ 2.74 µM)
- MIC Enterococcus avium (GC 4558) (Enterococcus sp.; [4]): 4 µg/mL (≈ 2.74 µM)
- MIC Enterococcus faecalis (ATCC 29212) (Enterococcus sp.; [4]): 4 µg/mL (≈ 2.74 µM)
- MIC Enterococcus faecalis (GC 2242) (Enterococcus sp.; [4]): 4 µg/mL (≈ 2.74 µM)
- MIC Enterococcus faecalis (GC 6189) (Enterococcus sp.; [4]): 1 µg/mL (≈ 0.685 µM)
- MIC Enterococcus faecium (GC 2243) (Enterococcus sp.; [4]): 1 µg/mL (≈ 0.685 µM)
- MIC Enterococcus faecium (GC 4556) (Enterococcus sp.; [4]): 4 µg/mL (≈ 2.74 µM)
- MIC Escherichia coli (ATCC 25922) (Escherichia coli): 64 µg/mL (≈ 43.8 µM)
- MIC Escherichia coli (GC 4559) (Escherichia coli): >64 µg/mL
- MIC Escherichia coli (GC 4560) (Escherichia coli): 4 µg/mL (≈ 2.74 µM)
- MIC Streptococcus pneumoniae (ATCC 6301) (Streptococcus sp.; [5]): <0.06 µg/mL
- MIC Streptococcus pneumoniae (GC 1894) (Streptococcus sp.; [6]): <0.06 µg/mL
- MIC Streptococcus pneumoniae (ATCC 6301) (Streptococcus sp.; [4]): <0.06 µg/mL
- MIC Streptococcus pneumoniae (GC 1894) (Streptococcus sp.; [4]): <0.06 µg/mL

Structure (SMILES): CC(c1ccccc1)C1NC(=O)CNC(=O)C(CO)NC(=O)C(C(O)C2CNC(=N)N2C2OC(CO)C(O)C(O)C2O)NC(=O)C(C(O)C2CNC(=N)N2)NC(=O)C(Cc2ccc(OC3OC(CO)C(OC4OC5COC6(CCCCCCCCCCCC6)OC5C(O)C4O)C(O)C3O)cc2)NC1=O (stereo not shown) [Example 210]
- MIC Staphylococcus aureus (ATCC 29213) (Staphylococcus sp.): 32 µg/mL (≈ 21.7 µM)
- MIC Staphylococcus aureus (GC 1131) (Staphylococcus sp.): 32 µg/mL (≈ 21.7 µM)
- MIC Staphylococcus aureus (GC 3051) (Staphylococcus sp.; strain GC 3051): 32 µg/mL (≈ 21.7 µM)
- MIC Staphylococcus aureus (GC 3053) (Staphylococcus sp.; strain GC 3053): 32 µg/mL (≈ 21.7 µM)
- MIC Staphylococcus aureus (GC 4541) (Staphylococcus sp.): 32 µg/mL (≈ 21.7 µM)
- MIC Staphylococcus aureus (GC 4542) (Staphylococcus sp.; strain GC 4542): 32 µg/mL (≈ 21.7 µM)
- MIC Staphylococcus aureus-SMITH (GC 4543) (Staphylococcus sp.): 32 µg/mL (≈ 21.7 µM)
- MIC Staphylococcus aureus (GC 4544) (Staphylococcus sp.; strain GC 4544): 32 µg/mL (≈ 21.7 µM)
- MIC Staphylococcus aureus (GC 4545) (Staphylococcus sp.; strain GC 4545): 32 µg/mL (≈ 21.7 µM)
- MIC Staphylococcus haemolyticus (GC 4546) (Staphylococcus sp.; strain GC 4546): 32 µg/mL (≈ 21.7 µM)
- MIC Coagulase Negative Staphylococcus (GC 4547) (Staphylococcus sp.): 32 µg/mL (≈ 21.7 µM)
- MIC Coagulase Negative Staphylococcus (GC 4548) (Staphylococcus sp.): 32 µg/mL (≈ 21.7 µM)
- MIC Coagulase Negative Staphylococcus (GC 4549) (Staphylococcus sp.): 8 µg/mL (≈ 5.43 µM)
- MIC Coagulase Negative Staphylococcus (GC 4551) (Staphylococcus sp.; strain GC 4551): 32 µg/mL (≈ 21.7 µM)
- MIC Coagulase Negative Staphylococcus (GC 6257) (Staphylococcus sp.): 32 µg/mL (≈ 21.7 µM)
- MIC Enterococcus avium (GC 4558) (Enterococcus sp.; Enterococcus avium (GC 4558)): 16 µg/mL (≈ 10.9 µM)
- MIC Enterococcus faecalis (ATCC 29212) (Enterococcus sp.; [1]): 32 µg/mL (≈ 21.7 µM)
- MIC Enterococcus faecalis (GC 2242) (Enterococcus sp.; [2]): 16 µg/mL (≈ 10.9 µM)
- MIC Enterococcus faecalis (GC 2691) (Enterococcus sp.; Enterococcus faecalis (GC 2691)): 8 µg/mL (≈ 5.43 µM)
- MIC Enterococcus faecalis (GC 3059) (Enterococcus sp.; Enterococcus faecalis (GC 3059)): 32 µg/mL (≈ 21.7 µM)
- MIC Enterococcus faecalis (GC 4552) (Enterococcus sp.; Enterococcus faecalis (GC 4552)): 32 µg/mL (≈ 21.7 µM)
- MIC Enterococcus faecalis (GC 4553) (Enterococcus sp.; Enterococcus faecalis (GC 4553)): 16 µg/mL (≈ 10.9 µM)
- MIC Enterococcus faecalis (GC 4554) (Enterococcus sp.; Enterococcus faecalis (GC 4554)): 32 µg/mL (≈ 21.7 µM)
- MIC Enterococcus faecalis (GC 6189) (Enterococcus sp.; [3]): 16 µg/mL (≈ 10.9 µM)
- MIC Enterococcus faecium (GC 2243) (Enterococcus sp.; Enterococcus faecium (GC 2243)): 32 µg/mL (≈ 21.7 µM)
- MIC Enterococcus faecium (GC 4556) (Enterococcus sp.; Enterococcus faecium (GC 4556)): 32 µg/mL (≈ 21.7 µM)
- MIC Enterococcus faecium (GC 4557) (Enterococcus sp.; Enterococcus faecium (GC 4557)): 32 µg/mL (≈ 21.7 µM)
- MIC Enterococcus avium (GC 4558) (Enterococcus sp.; [4]): 16 µg/mL (≈ 10.9 µM)
- MIC Enterococcus faecalis (ATCC 29212) (Enterococcus sp.; [4]): 32 µg/mL (≈ 21.7 µM)
- MIC Enterococcus faecalis (GC 2242) (Enterococcus sp.; [4]): 16 µg/mL (≈ 10.9 µM)
- MIC Enterococcus faecalis (GC 2691) (Enterococcus sp.; [4]): 8 µg/mL (≈ 5.43 µM)
- MIC Enterococcus faecalis (GC 3059) (Enterococcus sp.; [4]): 32 µg/mL (≈ 21.7 µM)
- MIC Enterococcus faecalis (GC 4552) (Enterococcus sp.; [4]): 32 µg/mL (≈ 21.7 µM)
- MIC Enterococcus faecalis (GC 4553) (Enterococcus sp.; [4]): 16 µg/mL (≈ 10.9 µM)
- MIC Enterococcus faecalis (GC 4554) (Enterococcus sp.; [4]): 32 µg/mL (≈ 21.7 µM)
- MIC Enterococcus faecalis (GC 6189) (Enterococcus sp.; [4]): 16 µg/mL (≈ 10.9 µM)
- MIC Enterococcus faecium (GC 2243) (Enterococcus sp.; [4]): 32 µg/mL (≈ 21.7 µM)
- MIC Enterococcus faecium (GC 4556) (Enterococcus sp.; [4]): 32 µg/mL (≈ 21.7 µM)
- MIC Enterococcus faecium (GC 4557) (Enterococcus sp.; [4]): 32 µg/mL (≈ 21.7 µM)
- MIC Escherichia coli (ATCC 25922) (Escherichia coli): >64 µg/mL
- MIC Escherichia coli (GC 4559) (Escherichia coli): >64 µg/mL
- MIC Escherichia coli (GC 4560) (Escherichia coli): 64 µg/mL (≈ 43.4 µM)
- MIC Streptococcus agalactiae (GC 4564) (Streptococcus sp.; Streptococcus agalactiae (GC 4564)): 0.25 µg/mL (≈ 0.17 µM)
- MIC Streptococcus pneumoniae (ATCC 6301) (Streptococcus sp.; [5]): 0.25 µg/mL (≈ 0.17 µM)
- MIC Streptococcus pneumoniae (GC 1894) (Streptococcus sp.; [6]): <0.06 µg/mL
- MIC Streptococcus pneumoniae (GC 4565) (Streptococcus sp.; Streptococcus pneumoniae (GC 4565)): <0.06 µg/mL
- MIC Streptococcus pyogenes (GC 4563) (Streptococcus sp.; Streptococcus pyogenes (GC 4563)): 2 µg/mL (≈ 1.36 µM)
- MIC Streptococcus agalactiae (GC 4564) (Streptococcus sp.; [4]): 0.25 µg/mL (≈ 0.17 µM)
- MIC Streptococcus pneumoniae (ATCC 6301) (Streptococcus sp.; [4]): 0.25 µg/mL (≈ 0.17 µM)
- MIC Streptococcus pneumoniae (GC 1894) (Streptococcus sp.; [4]): <0.06 µg/mL
- MIC Streptococcus pneumoniae (GC 4565) (Streptococcus sp.; [4]): <0.06 µg/mL
- MIC Streptococcus pyogenes (GC 4563) (Streptococcus sp.; [4]): 2 µg/mL (≈ 1.36 µM)

Source: patent US8247211B2, “Glycopeptide antibiotics” (American Cyanamid Company, priority 2001, dated 2012)
